Data on 16 compounds can be found in patent US5914343A, “Compounds and methods for inhibiting hyper-proliferative cell growth” (Sugen, Inc., priority 1997, dated 1999).

One data set relates to C6 glioma cells. Put plainly: In vivo tumor inhibition: subcutaneous Xenograft model with C6 glioma cells in mice. Also noted: species or system mice (BALB/c, nu/nu). Particulars: for Inhibition of tumor growth (FIGS. 1, 2, and 3): IP injection, 15 mg/kg/day, AA10 and AA12 in DMSO, AA14 in PBS. As to the method: In vivo tumor inhibition was measured using a subcutaneous Xenograft model.
C6 cells were maintained in Ham's F10 supplemented with 10% fetal bovine serum (FBS) and 2 mM glutamine (GLN). Cells were harvested at or near confluence with 0.05% Trypsin-EDTA and pelleted at 450×g for 10 min. Pellets were resuspended in sterile PBS or media (without FBS) to a particular concentration and the cells were implanted into the hindflank of mice. Tumor growth was measured over 3 to 6 weeks using venier calipers. Tumor volumes were calculated as a product of length x width x height unless otherwise indicated. AA10 and AA12 were solubilized in 50-100 μL vehicle (DMSO) while AA14 was dissolved in PBS (pH 7.4). The compounds were delivered by IP injection at 15 mg/kg/day.
The compound was dissolved in phosphate buffered saline and the animals were treated with 30 mg/kg/day and 50 mg/kg/day.

The next data set has as its system mice (BALB/c). Put plainly: Toxicity studies (LD50, LD10, organ damage) in mice. Format: in vivo. As to the method:
(§1) Toxicity studies were carried out in animal models for AA10, AA12 and AA14. AA10 and AA12 were solubilized in DMSO and AA14 was dissolved in PBS (pH 7.4). The dosage resulting in a 50% mortality rate (LD50) and a 10% mortality rate (LD10) was determined as described below.
(§2) Five mice (BALB/c) were treated with different concentrations of compound. […] The LD50 was calculated from a plot of % mortality versus dose (log M) using a four parameter logistic equation.
(§3) At the end of the experiment an animal from each study administered with 100 mg/kg of compound was sacrificed and pathologically analyzed for organ damage.

Assay in data set [1]: as above
Format: in vivo. The settings on record: mouse, in vivo. The procedure:
as §1, §2, §3

The next data set in a line: Solubility of compounds. Format: physicochemical.
The next data set has as its system C6 cells. Put plainly: In vitro tumor inhibition: anchorage-dependent C6 cell growth assay (sulforhodamine B). It is filed as cell-based. The settings on record: for IC50: Rattus norvegicus, C6 cells, 2000 cells/well, 4 days, 37° C., SRB stain. As to the method:
The assay measures protein content of acid-fixed cells using the counterion binding dye sulforhodamine B (SRB, Sigma).
AA10 and AA12 were solubilized in DMSO (Sigma, cell culture grade), and AA14 was dissolved in PBS (pH 7.4), the compounds were diluted into appropriate growth medium at two-fold the desired final assay concentration.
Compound (100 μL) was added to 96-well plates containing attached cellular monolayers C6 cells (2000 cells/well in 100 μL). After 4 days (37° C., 5% CO2) the monolayers were washed 3 times with PBS and fixed with 200 μL ice-cold 10% trichloroacetic acid (TCA) (Fisher Scientific), and kept at 4° C. for 60 minutes. The TCA was removed and the fixed monolayers were washed 5 times with tap water and allowed to dry completely at room temperature on absorbent paper. The cellular protein was stained for 10 min with 100 μL 0.4% SRB dissolved in 1% acetic acid. After 5 washes with tap water, the dye was solubilized in 10 mM Tris base (100 μL per well) and absorbance read at 570 nm on a Dynatech plate reader model MR5000. Growth inhibition data are expressed as aL percentage of absorbance detected in control wells which were treated with 0.4% DMSO or PBS alone. […] IC50 values were determined using a four parameter curve fit function.
Background: In SRB staining, fixed cells bind dye roughly in proportion to their protein.

Data set [2] is described as follows: Stability compared with leflunomide. It is filed as physicochemical.
Data set [3] concerns autoimmune animal diseases. Particulars: Bartlett R. R. et al., Agents and Actions 32:10-21 (1991); cited from earlier work.
[4] abbreviates: mice (BALB/c), observed 7 to 14 days after last dose, AA10 and AA12 in DMSO, AA14 in PBS.
[5] abbreviates: organic solvent or mixture, in DMSO, read-out: Solubility in DMSO.

SMILES strings stand for the structures. ≈ marks a conversion by molar mass, not a printed value. Counter-ions that a name gives are not always drawn. Like-named read-outs stand apart in the source and are kept apart here. A value given as a limit tells only on which side of the number the result lay.

For the compound `CC(O)=C(C#N)C(=S)Nc1ccc(C(F)(F)F)cc1.[Na]`, the “Tumor inhibition at higher AA14 concentrations (FIG. 4)” value in the data set with C6 glioma cells (30 mg/kg/day and 50 mg/kg/day in phosphate buffered saline) is on record as “increased tumor inhibition”. Further, in the data set with C6 glioma cells, the “Inhibition of tumor growth (FIGS. 1, 2, and 3)” value (“Inhibition of tumor growth” for short) is “inhibit tumor growth”. The same compound registered an LD10 in the data set on mice (BALB/c) (mouse, in vivo) of 120 mg/kg. Moreover, the LD50 in data set [1] was 145 mg/kg. In “Solubility of compounds” (AA14 compared with leflunomide and its hydroxycrotonamide metabolite), the “Solubility in PBS (in words)” value was “soluble in PBS”. Also, in the data set “Solubility of compounds” (aqueous buffer, in PBS (phosphate buffered saline at pH 7.4), read-out: Solubility in PBS), the solubility came to 275 mg/mL.
Turning to `Cc1oncc1C(=S)Nc1ccc(C(F)(F)F)cc1` [AA10, 5-Methyl-4-(4-trifluoromethylphenyl)aminothiocarbonylisoxazole], the “Inhibition of hyper-proliferative cell growth (in words)” value in the data set with C6 cells is recorded as “able to inhibit hyper-proliferative cell growth”. The same compound yielded an IC50 in the data set with C6 cells (96 h) of 2 µM. Also, the “Inhibition of tumor growth” value with C6 glioma cells is given as “inhibit tumor growth”. The LD10 in the data set with mice (BALB/c) (setting [4]) came out at 77 mg/kg. For the same compound, in data set [1] (setting [4]), the LD50 worked out at 96 mg/kg. Besides, in the data set “Solubility of compounds” (in ethanol), the “Solubility in ethanol compared with leflunomide” value is “more soluble in ethanol”. For the same compound, the solubility in the data set “Solubility of compounds” (setting [5]) is no less than 1000 mg/mL. In addition, the “Stability compared with leflunomide” value in data set [2] is “appears to be more stable than leflunomide”.
As for `CC(O)=C(C#N)C(=S)Nc1ccc(C(F)(F)F)cc1` [AA12, 1-Cyano-2-hydroxy-1-(4-trifluoromethylphenyl)aminothiocarbonylpropene], the “Inhibition of hyper-proliferative cell growth (in words)” value in the data set with C6 cells is reported as “able to inhibit hyper-proliferative cell growth”. Besides, inhibition in the data set on C6 cells (96 h) was half-maximal at 0.8 µM (IC50). Further, the “Inhibition of tumor growth” value in the data set on C6 glioma cells is “inhibit tumor growth”. This compound displayed an LD10 in the data set on mice (BALB/c) (setting [4]) of 62 mg/kg. For the same compound, the LD50 in data set [1] (setting [4]) is 79 mg/kg. Also, the solubility in the data set “Solubility of compounds” (setting [5]) was found to be 400 mg/mL (≈ 1400 mM).
As for `CC(O)=C(C#N)S(=O)(=O)Nc1ccc(C(F)(F)F)cc1` [AA17, 1-Cyano-2-hydroxy-1-(4-trifluoromethylphenylaminosulfonyl)propene], in the data set on C6 cells (96 h), the IC50 was 30 µM.
The compound `CC(O)=C(C#N)S(=O)(=O)Nc1ccc(C(F)(F)F)cc1` [AA18, 1-cyano-2-hydroxy-1-(4-trifluoromethylphenylaminosulfonyl)propene sodium salt] displayed an IC50 in the data set on C6 cells (C6, 96 h) of 24 µM.
Regarding `N#CC(C(=S)Nc1ccc(C(F)(F)F)cc1)=C(O)C1CC1` [Compound 3, 3-cyclopropyl-3-hydroxy-2-[(4-trifluoromethylphenyl)aminothiocarbonyl]acrylonitrile], the IC50 in the data set with C6 cells (96 h) is less than 1 µM.
Regarding `C=C(C)C(O)=C(C#N)C(=S)Nc1ccc(C(F)(F)F)cc1` [Compound 6, 3-hydroxy-3-(propen-2-yl)-2-[[4-(trifluoro-methyl)-phenyl]aminothiocarbonyl]acrylonitrile], in the data set with C6 cells (96 h), the IC50 worked out at 31.2 µM. In other words, the double-digit micromolar range.
In turn, `CC(O)=C(C#N)C(=S)Nc1ccc(F)cc1Br` [Compound 7, 3-hydroxy-3-methyl-2-[(2-bromo-4-fluorophenyl)aminothiocarbonyl]acrylonitrile] displayed an IC50 in the data set on C6 cells (96 h) of 36.7 µM.
`CC(O)=C(C#N)C(=S)Nc1ccccc1C(F)(F)F` [Compound 12, 3-hydroxy-3-methyl-2-[[2-(trifluoromethyl)-phenyl]aminothiocarbonyl]acrylonitrile]: in the data set with C6 cells (96 h), the IC50 was greater than 100 µM.
As for `CC(O)=C(C#N)C(=S)Nc1cccc(C(F)(F)F)c1` [Compound 17, 3-hydroxy-3-methyl-2-[[3-(trifluoromethyl)phenyl]aminothiocarbonyl]acrylonitrile], half-maximal inhibition in the data set with C6 cells (96 h) (IC50) required 15.2 µM.
In turn, `CC(O)=C(C#N)C(=S)Nc1ccc(S(=O)(=O)N2CCCCC2)cc1` [Compound 22, 3-hydroxy-3-methyl-2-[[4-(piperidine-1-sulfonyl)-phenyl]aminothiocarbonyl]acrylonitrile] returned an IC50 with C6 cells (96 h) of 24.3 µM. This IC50 lies about 1.6-fold higher than the previous one.
Still for that read-out and setting: in the case of `CC(O)=C(C#N)C(=S)Nc1ccc(S(N)(=O)=O)cc1` [Compound 27, 3-hydroxy-3-methyl-2-[[4-(aminosulfonyl)phenyl]aminothiocarbonyl]acrylonitrile] it was greater than 20 µM.
The compound `CC(O)=C(C#N)C(=S)Nc1cccc(Cl)c1Cl` [Compound 32, 3-hydroxy-3-methyl-2-[(2,3-dichlorophenyl)aminothiocarbonyl]acrylonitrile] registered a half-inhibitory concentration (IC50) with C6 cells (96 h) of 35.3 µM. This counts as double-digit micromolar.
On the same count and under the same terms, in the case of `CC(O)=C(C#N)C(=S)Nc1ccc(Cl)c(Cl)c1` [Compound 37, 3-hydroxy-3-methyl-2-[(3,4-dichlorophenyl)-aminothiocarbonyl]acrylonitrile] it was 6.1 µM; in that of `CC(O)=C(C#N)C(=S)Nc1ccc(Cl)cc1Cl` [Compound 42, 3-hydroxy-3-methyl-2-[(2,4-dichlorophenyl)aminothiocarbonyl]acrylonitrile], 53.3 µM.
On to `Cc1oncc1C(=O)Nc1ccc(C(F)(F)F)cc1` [leflunomide, 5-methylisoxazole-4 carboxylic acid-(4-trifluromethyl)-anilide, reference compound], for which the “Preventing and curing autoimmune animal diseases” value in data set [3] was “very effective in preventing and curing several autoimmune animal diseases”.

What is called LD50 is the dose expected to kill half of the subjects tested. A high value points to a less toxic substance. One may read the solubility as the concentration that dissolves in the medium under given conditions. For orientation: IC50 means the midpoint of a concentration-inhibition curve. A higher IC50 goes with weaker potency in that assay.
